In paper PMC4432287, “NsrR from Streptomyces coelicolor Is a Nitric Oxide-sensing [4Fe-4S] Cluster Protein with a Specialized Regulatory Function” (The Journal of Biological Chemistry, 2015):

biological target: T1, ScNsrR ([4Fe-4S] NsrR) (Streptomyces coelicolor, UniProt Q9L132); experiment: CD titration at […] nm, single-site fit; assay type: binding
T1 construct: untagged native full-length protein from pNsrR, E. coli BL21λDE3, anaerobic heparin purification, homodimer (~37 kDa by gel filtration); C-terminal His6 form (apo 17,474 Da) used for native MS
T1 sequence (Q9L132 whole entry): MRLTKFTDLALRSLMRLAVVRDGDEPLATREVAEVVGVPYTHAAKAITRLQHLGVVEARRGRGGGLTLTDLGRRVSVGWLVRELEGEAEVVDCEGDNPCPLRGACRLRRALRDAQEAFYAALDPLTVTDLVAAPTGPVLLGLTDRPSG

| Kd | Compound |
| --- | --- |
| 9.9 mM | OC(CS)C(O)CS (stereo not drawn) [dithiothreitol] |
| ~1.9 mM | CCS [thioethane] |
| ~3.8 mM | OCCS [β-mercaptoethanol] |
